In US12545639B2, “3-substituted phenylamidine compounds, preparation and use thereof” (PI INDUSTRIES LTD., priority 2019, dated 2026):

Legend:
[1] = test system: Phakopsora pachyrhizi; experiment: Phakopsora pachyrhizi test in soybean, preventive, in vivo on plants; settings: in Glycine max, read-out: Efficacy (% control), disease severity compared to the untreated check
[2] = test system: Rhizoctonia solani; experiment: Rhizoctonia solani (rice sheath blight/potato black scurf) in vitro test, radial growth on potato dextrose agar; type: cell-based; settings: 168 h, 300 ppm in potato dextrose agar, 25° C., 60% relative humidity, seven days, read-out: control compared to the untreated check (radial growth)
[3] = test system: Pyricularia oryzae; experiment: microbe, parasite or virus in culture; type: cell-based; settings: 168 h, read-out: control compared to the untreated check (radial growth)
[4] = test system: Colletotrichum capsici; experiment: Colletotrichum capsici (anthracnose) in vitro test, radial growth on potato dextrose agar; type: cell-based; settings: Colletotrichum truncatum, 168 h; 300 ppm in potato dextrose agar; 25° C., 60% relative humidity, seven days; read-out: control compared to the untreated check (radial growth)
[5] = test system: Alternaria solani; experiment: Alternaria solani (early blight of tomato/potato) in vitro test, radial growth on potato dextrose agar; type: cell-based; settings: 168 h, 300 ppm in potato dextrose agar, 25° C., 60% relative humidity, seven days, read-out: control compared to the untreated check (radial growth)
[6] = test system: Botrytis cinerea; experiment: Botrytis cinerea (gray mold) in vitro test, radial growth on potato dextrose agar; type: cell-based; settings: 168 h, 300 ppm in potato dextrose agar, 22° C., 90% relative humidity, seven days, read-out: control compared to the untreated check (radial growth)

CCN(C)C=Nc1cc(F)cc(N(C)c2cccc(C)c2F)c1C [Compound 152, N-ethyl-N′-(5-fluoro-3-((2-fluoro-3-methylphenyl)(methyl)amino)-2-methylphenyl)-N-methylformimidamide]
≥ 70%: pest or weed control at 500 ppm [1] | inhibition of growth at 300 ppm [2] | inhibition of growth at 300 ppm [3] | inhibition of growth at 300 ppm [4] | inhibition of growth at 300 ppm [5] | inhibition of growth at 300 ppm [6]

CCN(C)C=Nc1cc(C)cc(Cc2ccc(Br)cc2)c1Cl [Compound 93, N′-(3-(4-bromobenzyl)-2-chloro-5-methylphenyl)-N-ethyl-N-methylformimidamide]
≥ 70%: pest or weed control at 500 ppm [1] | inhibition of growth at 300 ppm [2] | inhibition of growth at 300 ppm [3] | inhibition of growth at 300 ppm [4] | inhibition of growth at 300 ppm [5] | inhibition of growth at 300 ppm [6]

CCN(C)C=Nc1cc(C)cc(Nc2cccc(Cl)c2)c1Cl [Compound 34, N′-(2-chloro-3-((3-chlorophenyl)amino)-5-methylphenyl)-N-ethyl-N-methylformimidamide]
≥ 70%: pest or weed control at 500 ppm [1] | inhibition of growth at 300 ppm [2] | inhibition of growth at 300 ppm [3] | inhibition of growth at 300 ppm [4] | inhibition of growth at 300 ppm [5] | inhibition of growth at 300 ppm [6]

CCN(C)C=Nc1cc(Cl)cc(Cc2cccc(Br)c2)c1C [Compound 245, N′-(3-(3-bromobenzyl)-5-chloro-2-methylphenyl)-N-ethyl-N-methylformimidamide]
≥ 70%: inhibition of growth at 300 ppm [2] | inhibition of growth at 300 ppm [3] | inhibition of growth at 300 ppm [4] | inhibition of growth at 300 ppm [5] | inhibition of growth at 300 ppm [6]

CCN(C)C=Nc1cc(C)cc(N(C)c2ccc(Cl)cc2F)c1Cl [Compound 156, N′-(2-chloro-3-((4-chloro-2-fluorophenyl)(methyl)amino)-5-methylphenyl)-N-ethyl-N-methylformimidamide]
≥ 70%: pest or weed control at 500 ppm [1] | inhibition of growth at 300 ppm [4] | inhibition of growth at 300 ppm [5]

CCN(C)C=Nc1cc(F)cc(Cc2ccc(Cl)cc2)c1C [Compound 172, N′-(3-(4-chlorobenzyl)-5-fluoro-2-methylphenyl)-N-ethyl-N-methylformimidamide]
≥ 70%: inhibition of growth at 300 ppm [2] | inhibition of growth at 300 ppm [3] | inhibition of growth at 300 ppm [4] | inhibition of growth at 300 ppm [5] | inhibition of growth at 300 ppm [6]

CCN(C)C=Nc1cc(C)cc(Cc2cccc(Cl)c2)c1Cl [Compound 27, N′-(2-chloro-3-(3-chlorobenzyl)-5-methylphenyl)-N-ethyl-N-methylformimidamide]
≥ 70%: inhibition of growth at 300 ppm [2] | inhibition of growth at 300 ppm [4] | inhibition of growth at 300 ppm [5] | inhibition of growth at 300 ppm [6]

CCN(C)C=Nc1cc(Cl)cc(Cc2ccccc2Br)c1C [Compound 90, N′-(3-(2-bromobenzyl)-5-chloro-2-methylphenyl)-N-ethyl-N-methylformimidamide]
≥ 70%: pest or weed control at 500 ppm [1] | inhibition of growth at 300 ppm [2] | inhibition of growth at 300 ppm [3] | inhibition of growth at 300 ppm [4] | inhibition of growth at 300 ppm [5] | inhibition of growth at 300 ppm [6]

CCN(C)C=Nc1cc(F)cc(Cc2ccc(C)cc2)c1C [Compound 171, N-ethyl-N′-(5-fluoro-2-methyl-3-(4-methylbenzyl)phenyl)-N-methylformimidamide]
≥ 70%: inhibition of growth at 300 ppm [2] | inhibition of growth at 300 ppm [3] | inhibition of growth at 300 ppm [4] | inhibition of growth at 300 ppm [5] | inhibition of growth at 300 ppm [6]

CCN(C)C=Nc1cc(Cl)cc(Cc2ccccc2C(F)(F)F)c1C [Compound 244, N′-(5-chloro-2-methyl-3-(2-(trifluoromethyl)benzyl)phenyl)-N-ethyl-N-methylformimidamide]
≥ 70%: inhibition of growth at 300 ppm [2] | inhibition of growth at 300 ppm [3] | inhibition of growth at 300 ppm [4] | inhibition of growth at 300 ppm [5] | inhibition of growth at 300 ppm [6]

CCN(C)C=Nc1cc(F)cc(N(C)c2cccc(OC)c2)c1C [Compound 39, N-ethyl-N′-(5-fluoro-3-((3-methoxyphenyl)(methyl)amino)-2-methylphenyl)-N-methylformimidamide]
≥ 70%: pest or weed control at 500 ppm [1] | inhibition of growth at 300 ppm [3] | inhibition of growth at 300 ppm [4] | inhibition of growth at 300 ppm [5]

CCN(C)C=Nc1cc(C)cc(Cc2ccccc2Br)c1Cl [Compound 45, N′-(3-(2-bromobenzyl)-2-chloro-5-methylphenyl)-N-ethyl-N-methylformimidamide]
≥ 70%: pest or weed control at 500 ppm [1] | inhibition of growth at 300 ppm [2] | inhibition of growth at 300 ppm [3] | inhibition of growth at 300 ppm [4] | inhibition of growth at 300 ppm [5] | inhibition of growth at 300 ppm [6]

CCN(C)C=Nc1cc(F)cc(Cc2cc(F)ccc2Br)c1C [Compound 233, N′-(3-(2-bromo-5-fluorobenzyl)-5-fluoro-2-methylphenyl)-N-ethyl-N-methylformimidamide]
≥ 70%: pest or weed control at 500 ppm [1] | inhibition of growth at 300 ppm [2] | inhibition of growth at 300 ppm [3] | inhibition of growth at 300 ppm [4] | inhibition of growth at 300 ppm [5] | inhibition of growth at 300 ppm [6]

CCN(C)C=Nc1cc(C)cc(N(C)c2cccc(F)c2)c1Cl [Compound 40, N′-(2-chloro-3-((3-fluorophenyl)(methyl)amino)-5-methylphenyl)-N-ethyl-N-methylformimidamide]
≥ 70%: pest or weed control at 500 ppm [1] | inhibition of growth at 300 ppm [3] | inhibition of growth at 300 ppm [4] | inhibition of growth at 300 ppm [5] | inhibition of growth at 300 ppm [6]

CCN(C)C=Nc1cc(Cl)cc(NCc2cccc(Cl)c2)c1C [Compound 183, N′-(5-chloro-3-((3-chlorobenzyl)amino)-2-methylphenyl)-N-ethyl-N-methylformimidamide]
≥ 70%: pest or weed control at 500 ppm [1] | inhibition of growth at 300 ppm [2] | inhibition of growth at 300 ppm [3] | inhibition of growth at 300 ppm [4] | inhibition of growth at 300 ppm [5] | inhibition of growth at 300 ppm [6]

CCN(C)C=Nc1cc(Cl)cc(Cc2cccc(F)c2)c1C [Compound 102, N′-(5-chloro-3-(3-fluorobenzyl)-2-methylphenyl)-N-ethyl-N-methylformimidamide]
≥ 70%: pest or weed control at 500 ppm [1] | inhibition of growth at 300 ppm [2] | inhibition of growth at 300 ppm [3] | inhibition of growth at 300 ppm [4] | inhibition of growth at 300 ppm [5] | inhibition of growth at 300 ppm [6]

CCN(C)C=Nc1cc(C)cc(Nc2ccc(OC)cc2)c1Cl [Compound 61, N′-(2-chloro-3-((4-methoxyphenyl)amino)-5-methylphenyl)-N-ethyl-N-methylformimidamide]
≥ 70%: inhibition of growth at 300 ppm [2] | inhibition of growth at 300 ppm [3] | inhibition of growth at 300 ppm [4] | inhibition of growth at 300 ppm [5]

CCN(C)C=Nc1cc(C)cc(Nc2ccc(OC)c(F)c2)c1Cl [Compound 255, N′-(2-chloro-3-((3-fluoro-4-methoxyphenyl)amino)-5-methylphenyl)-N-ethyl-N-methylformimidamide]
≥ 70%: pest or weed control at 500 ppm [1] | inhibition of growth at 300 ppm [2] | inhibition of growth at 300 ppm [3] | inhibition of growth at 300 ppm [4] | inhibition of growth at 300 ppm [5]

CCN(C)C=Nc1cc(C)cc(Cc2cccc(C#N)c2)c1Cl [Compound 48, N′-(2-chloro-3-(3-cyanobenzyl)-5-methylphenyl)-N-ethyl-N-methylformimidamide]
≥ 70%: inhibition of growth at 300 ppm [2] | inhibition of growth at 300 ppm [3] | inhibition of growth at 300 ppm [4] | inhibition of growth at 300 ppm [5]

CCN(C)C=Nc1cc(F)cc(N(C)c2cc(Cl)ccc2C)c1C [Compound 98, N′-(3-((5-chloro-2-methylphenyl)(methyl)amino)-5-fluoro-2-methylphenyl)-N-ethyl-N-methylformimidamide]
≥ 70%: pest or weed control at 500 ppm [1] | inhibition of growth at 300 ppm [2] | inhibition of growth at 300 ppm [3] | inhibition of growth at 300 ppm [4] | inhibition of growth at 300 ppm [5] | inhibition of growth at 300 ppm [6]

CCN(C)C=Nc1cc(C)cc(Cc2cc(F)c(OC)c(F)c2)c1Cl [Compound 71, N′-(2-chloro-3-(3,5-difluoro-4-methoxybenzyl)-5-methylphenyl)-N-ethyl-N-methylformimidamide]
≥ 70%: pest or weed control at 500 ppm [1] | inhibition of growth at 300 ppm [2] | inhibition of growth at 300 ppm [3] | inhibition of growth at 300 ppm [4] | inhibition of growth at 300 ppm [5] | inhibition of growth at 300 ppm [6]

CCN(C)C=Nc1cc(C)cc(Cc2ccc(OC)cc2)c1Cl [Compound 150, N′-(2-chloro-3-(4-methoxybenzyl)-5-methylphenyl)-N-ethyl-N-methylformimidamide]
≥ 70%: pest or weed control at 500 ppm [1] | inhibition of growth at 300 ppm [2] | inhibition of growth at 300 ppm [3] | inhibition of growth at 300 ppm [4] | inhibition of growth at 300 ppm [5] | inhibition of growth at 300 ppm [6]

CCN(C)C=Nc1cc(C)cc(N(C)c2ccc(Cl)cc2)c1Cl [Compound 62, N′-(2-chloro-3-((4-chlorophenyl)(methyl)amino)-5-methylphenyl)-N-ethyl-N-methylformimidamide]
≥ 70%: inhibition of growth at 300 ppm [4] | inhibition of growth at 300 ppm [5] | inhibition of growth at 300 ppm [6]

CCN(C)C=Nc1cc(C)cc(N(C)c2cccc(Cl)c2)c1Cl [Compound 41, N′-(2-chloro-3-((3-chlorophenyl)(methyl)amino)-5-methylphenyl)-N-ethyl-N-methylformimidamide]
≥ 70%: pest or weed control at 500 ppm [1] | inhibition of growth at 300 ppm [3] | inhibition of growth at 300 ppm [4] | inhibition of growth at 300 ppm [5] | inhibition of growth at 300 ppm [6]
